Several values for one entry are separate records, joined by “and”; a condition that tells them apart may be missing. Equal entries are not always repeated. Structures can show the parent of a compound that is named as a salt. Where two headings read alike, the source gives them in different places.
Legend:
[1] = oil: methylene chloride + methanol
[2] = for release from pure thermo-responsive hydrogels: previous tests
Protocol: Drug release was carried out in PBS at 37° C. […] Drug release samples were taken at predetermined time intervals and tested for anti-proliferative activity with fibroblast MTS assay as described previously. Briefly, 3T3 fibroblast cells were seeded in 96-well plates as 5000 cells/well. After cells were grown to semiconfluence, growth was arrested by washing plates with PBS and then adding low serum medium with DMEM, 0.5% (v/v) FBS and 1% (v/v) penicillin/streptomycin mixture. Growth arrest was maintained for 24 hours. The cell cycle synchronized cells were then re-stimulated to enter G1 phase by changing back to growth medium. […] PBS was added to growth medium as control group.
To quantify the size distribution of nanospheres, the suspension was sampled and serially filtered through 0.45 μm, 0.22 μm, and 0.1 μm filters. The drug concentration after each filtration was quantified and calculated within each nanosphere size distribution. Nanospheres with size >100 nm in diameter were harvested by ultrafiltration and centrifugation. The harvested nanospheres were washed twice with DI water to remove excess PVA. The resultant nanosphere suspension was immersed in fresh PBS at 37° C. to initiate release. […] The release samples were taken continuously for 1 day. All samples were quantified for 3H concentration using a scintillation counter. Each experiment was conducted in triplicate.
The samples were taken continuously for the first 24 hours. The drug concentration was measured spectrophotometrically at 240 nm.

P (oil/water) ([1]; water: 0.2% PVA) | release from free nanospheres ([2]; PBS, 37° C.) | release from nanospheres loaded hydrogels ([2]; PBS, 37° C.) | release from pure thermo-responsive hydrogels ([2]; after the first two hours) | drug release from PLGA nanospheres ([2]; within 24 hours, 37° C., PBS, disodium salt) | release from pure thermo-responsive hydrogels ([2]; within the first two hours) [%] | P (oil/water) ([1]; water: 2% PVA) | P (oil/water) ([1]; water: 2% PVA + 0.25N (NH4)2SO4) | P (oil/water) ([1]; water: 2% PVA + 0.5N NaCl) | SMILES
2.93 |  |  |  |  |  |  |  |  | [3H]C1=C([3H])[C@@]2(C)C(=C([3H])C1=O)CC[C@H]1[C@@H]3C[C@@H](C)[C@](O)(C(=O)CO)[C@@]3(C)C[C@H](O)[C@@]12F [[1,2,4-^3H]dexamethasone, [1,2,4-^3H]dexamethasone]
0.06 | sustained release over 24 hours | sustained release over 24 hours | less than 10% | > 90% and ~90% | ~90 | 0.15 | 0.86 | 0.26 | C[C@@H]1C[C@H]2[C@@H]3CCC4=CC(=O)C=C[C@]4(C)[C@@]3(F)[C@@H](O)C[C@]2(C)[C@@]1(O)C(=O)COP(=O)(O)O [Dexamethasone sodium phosphate, Dexamethasone 21-phosphate disodium salt]

From US20140065226A1, “THERMO-RESPONSIVE HYDROGEL COMPOSITIONS” (priority 2011, published 2014)
